Measurements published in patent publication US9113629B2, “4-amino-6-(4-substituted-phenyl)-picolinates and 6-amino-2-(4-substituted-phenyl)-pyrimidine-4-carboxylates and their use as herbicides” (DOW AGROSCIENCES LLC, priority 2013, dated 2015).
Where two headings read alike, the source gives them in different places.

How the values were obtained:
Assay in all cases: Post-emergent Test III, herbicidal activity in wheat and barley
Type in all cases: in vivo
[1] = test system: CIRAR: Canada thistle (Cirsium arvense); settings: Table 8, 21 d
Summary of the method: (§1)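 GR20, GR50, GR80 and GR90 come from probit analysis of visual injury scores (0 = none, 100 = complete kill) taken 21 d after treatment. Foliar application was by track sprayer delivering 187 L/ha at five rates, from high down to 1/16×, onto greenhouse plants at the 2–3 leaf stage, with solvent-blank controls.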

[2] = test system: GALAP: cleavers (Galium aparine); settings: Table 8, 21 d
Summary of the method: as §1

[3] = test system: SASKR: Russian thistle (Salsola iberica); settings: for pest or weed control at 35 g/ha / pest or weed control at 70 g/ha: Salsola tragus, post-emergence, 504 h; for pest or weed control at 35 g/ha: 35 g ai/ha; for pest or weed control at 70 g/ha: 70 g ai/ha; for GR50 SASKR: dose for 50 percent growth reduction; for GR50 SASKR / GR80 SASKR: probit analysis; for GR80 SASKR: dose for 80 percent growth reduction
Summary of the method: as §1

[4] = test system: VIOSS: wild pansy (Viola tricolor), field violet (Viola arvensis); settings: for GR50 VIOSS: dose for 50 percent growth reduction; for GR50 VIOSS / GR80 VIOSS: probit analysis; for GR80 VIOSS: dose for 80 percent growth reduction; for pest or weed control at 35 g/ha / pest or weed control at 70 g/ha: Viola tricolor, post-emergence, 504 h; for pest or weed control at 35 g/ha: 35 g ai/ha; for pest or weed control at 70 g/ha: 70 g ai/ha
Summary of the method: as §1

[5] = test system: PHAMI: lesser canary grass (Phalaris minor); settings: for pest or weed control at 35 g/ha / pest or weed control at 70 g/ha / pest or weed control at 140 g/ha: Phalaris minor, post-emergence, 504 h, read-out: Visual Growth Reduction (%) 21 Days After Application PHAMI; for pest or weed control at 35 g/ha: 35 g ai/ha; for pest or weed control at 70 g/ha: 70 g ai/ha; for pest or weed control at 140 g/ha: 140 g ai/ha; for GR50 PHAMI / GR80 PHAMI: probit analysis, 21 days after application; for GR50 PHAMI: dose for growth reduction of 50 percent; for GR80 PHAMI: dose for growth reduction of 80 percent
Summary of the method: as §1

[6] = test system: STEME: common chickweed (Stellaria media); settings: for pest or weed control at 35 g/ha / pest or weed control at 70 g/ha / pest or weed control at 140 g/ha: Stellaria media, post-emergence, 504 h, read-out: Visual Growth Reduction (%) 21 Days After Application STEME; for pest or weed control at 35 g/ha: 35 g ai/ha; for pest or weed control at 70 g/ha: 70 g ai/ha; for pest or weed control at 140 g/ha: 140 g ai/ha; for GR50 STEME / GR80 STEME: probit analysis, 21 days after application; for GR50 STEME: dose for growth reduction of 50 percent; for GR80 STEME: dose for growth reduction of 80 percent
Summary of the method: as §1

[7] = dose for 50 percent growth reduction, probit analysis
[8] = dose for 80 percent growth reduction, probit analysis
[9] = Table 8, post-emergent, 21 d, read-out: Visual Growth Reduction (%) 21 Days After Application SASKR
[10] = Table 8, post-emergent, 21 d, read-out: Visual Growth Reduction (%) 21 Days After Application VIOSS
[11] = 21 days after application, read-out: Visual Gorowth Reduction (%) 21 days After Application SASKR
[12] = 21 days after application, read-out: Visual Gorowth Reduction (%) 21 days After Application VIOSS

Structure (SMILES) | pest or weed control at 35 g/ha [5] | pest or weed control at 70 g/ha [5] | pest or weed control at 140 g/ha [5] | GR50 PHAMI [5] | GR80 PHAMI [5] | pest or weed control at 35 g/ha [6] | pest or weed control at 70 g/ha [6] | pest or weed control at 140 g/ha [6] | GR50 STEME [6] | GR80 STEME [6] | also measured
Nc1cc(-c2cc(F)c(Br)cc2F)nc(C(=O)O)c1Cl [Compound 3] | – | – | – | – | – | – | – | – | – | – | pest or weed control at 35 g/ha ([1]; Cirsium arvense, post-emergence, 504 h, 35 g ai/ha, post-emergent, read-out: Visual Growth Reduction (%) 21 Days After Application CIRAR): 60 to 74%; pest or weed control at 70 g/ha ([1]; Cirsium arvense, post-emergence, 504 h, 70 g ai/ha, post-emergent, read-out: Visual Growth Reduction (%) 21 Days After Application CIRAR): 75 to 84%; GR50 CIRAR [1, 7]: 18 g ai/ha; GR80 CIRAR [1, 8]: 53 g ai/ha; pest or weed control at 35 g/ha ([2]; Galium aparine, post-emergence, 504 h, 35 g ai/ha, post-emergent, read-out: Visual Growth Reduction (%) 21 Days After Application GALAP): 95 to 100%; pest or weed control at 70 g/ha ([2]; Galium aparine, post-emergence, 504 h, 70 g ai/ha, post-emergent, read-out: Visual Growth Reduction (%) 21 Days After Application GALAP): 95 to 100%; GR50 GALAP [2, 7]: 5 g ai/ha; GR80 GALAP [2, 8]: 7 g ai/ha; pest or weed control at 35 g/ha [3, 9]: 75 to 84%; pest or weed control at 70 g/ha [3, 9]: 85 to 94%; GR50 SASKR ([3]; Table 8, 21 d): 2 g ai/ha; GR80 SASKR ([3]; Table 8, 21 d): 28 g ai/ha; GR50 VIOSS ([4]; Table 8, 21 d): 4 g ai/ha; GR80 VIOSS ([4]; Table 8, 21 d): 7 g ai/ha; pest or weed control at 35 g/ha [4, 10]: 95 to 100%; pest or weed control at 70 g/ha [4, 10]: 95 to 100%
Nc1c(F)c(-c2ccc(Br)cc2)nc(C(=O)O)c1Cl [Compound 20] | 85 to 94% | 85 to 94% | 85 to 94% | 5 g ai/ha | 25 g ai/ha | 75 to 84% | 95 to 100% | 95 to 100% | 8 g ai/ha | 25 g ai/ha | –
N#Cc1ccc(-c2nc(C(=O)O)c(Cl)c(N)c2F)cc1 [Compound 39] | 0 to 29% | 30 to 44% | 45 to 59% | 118 g ai/ha | >140 g ai/ha | 0 to 29% | 30 to 44% | 45 to 59% | 111 g ai/ha | >140 g ai/ha | –
Nc1c(F)c(-c2ccc(I)cc2)nc(C(=O)O)c1Cl [Compound 45, 4-amino-3-chloro-5-fluoro-6-(4-iodophenyl)picolinic acid] | 75 to 84% | 85 to 94% | 95 to 100% | 15 g ai/ha | 32 g ai/ha | 30 to 44% | 30 to 44% | 30 to 44% | 75 g ai/ha | >140 g ai/ha | –
Nc1c(F)c(-c2cc(F)c(I)cc2F)nc(C(=O)O)c1Cl [Compound 69] | – | – | – | – | – | – | – | – | – | – | pest or weed control at 35 g/ha [3, 11]: 85 to 94%; pest or weed control at 70 g/ha [3, 11]: 85 to 94%; GR50 SASKR ([3]; 21 days after application): 7 g ai/ha; GR80 SASKR ([3]; 21 days after application): 29 g ai/ha; pest or weed control at 35 g/ha [4, 12]: 85 to 94%; pest or weed control at 70 g/ha [4, 12]: 95 to 100%; GR50 VIOSS ([4]; 21 days after application): 3 g ai/ha; GR80 VIOSS ([4]; 21 days after application): 8 g ai/ha
COC(=O)c1nc(-c2ccc(OC(F)F)cc2)c(F)c(N)c1Cl [Compound 85] | 0 to 29% | 0 to 29% | 0 to 29% | >140 g ai/ha | >140 g ai/ha | 0 to 29% | 0 to 29% | 0 to 29% | 57 g ai/ha | 123 g ai/ha | –
C=Cc1c(C(=O)O)nc(-c2ccc(C(F)(F)F)c(F)c2)c(F)c1N [Compound 86] | – | – | – | – | – | – | – | – | – | – | pest or weed control at 35 g/ha [3, 11]: 60 to 74%; pest or weed control at 70 g/ha [3, 11]: 75 to 84%; GR50 SASKR ([3]; 21 days after application): 18 g ai/ha; GR80 SASKR ([3]; 21 days after application): 66 g ai/ha; pest or weed control at 35 g/ha [4, 12]: 60 to 74%; pest or weed control at 70 g/ha [4, 12]: 60 to 74%; GR50 VIOSS ([4]; 21 days after application): 21 g ai/ha; GR80 VIOSS ([4]; 21 days after application): 77 g ai/ha
COC(=O)c1nc(-c2ccc(Br)c(F)c2F)cc(N)c1Cl [Compound 114, methyl 4-amino-6-(4-bromo-2,3-difluorophenyl)-3-chloropicolinate] | 0 to 29% | 0 to 29% | 0 to 29% | >140 g ai/ha | >140 g ai/ha | 0 to 29% | 0 to 29% | 0 to 29% | >140 g ai/ha | >140 g ai/ha | –
COC(=O)c1nc(-c2ccc(I)cc2)c(F)c(N)c1Cl [Compound 118, Methyl 4-amino-6-(4-iodophenyl)-3-chloro-5-fluoropicolinate] | 0 to 29% | 60 to 74% | 75 to 84% | 68 g ai/ha | 126 g ai/ha | 30 to 44% | 30 to 44% | 30 to 44% | 1 g ai/ha | 1 g ai/ha | –
COC(=O)c1nc(-c2ccc(Br)cc2)c(F)c(N)c1Cl [Compound 138, Methyl 4-amino-6-(4-bromophenyl)-3-chloro-5-fluoropicolinate] | 45 to 59% | 75 to 84% | 85 to 94% | 31 g ai/ha | 78 g ai/ha | 30 to 44% | 30 to 44% | 45 to 59% | 125 g ai/ha | >140 g ai/ha | –
COC(=O)c1nc(-c2ccc(C#N)cc2)c(F)c(N)c1Cl [Compound 142] | 0 to 29% | 0 to 29% | 0 to 29% | >140 g ai/ha | >140 g ai/ha | 0 to 29% | 0 to 29% | 0 to 29% | >140 g ai/ha | >140 g ai/ha | –
Nc1c(F)c(-c2ccc(OC(F)F)cc2)nc(C(=O)O)c1Cl [Compound 143] | 0 to 29% | 30 to 44% | 60 to 74% | 112 g ai/ha | >140 g ai/ha | 0 to 29% | 0 to 29% | 0 to 29% | >140 g ai/ha | >140 g ai/ha | –
